The values below come from patent US10899738B2 (THE REGENTS OF THE UNIVERSITY OF MICHIGAN, priority 2016, dated 2021).

The target in this assay is menin protein (Homo sapiens (Human), UniProt O00255). Kind of assay: biochemical. In kind it is binding. As to conditions: FP competitive binding, menin protein 4 nM, FAM-MM2 probe 2 nM; for IC50: read-out: Menin Binding Affinity IC50. The gist of the method: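 Competitive fluorescence polarization assay using FAM-labelled MLL1 peptide probe FAM-MM2 (2 nM final) preincubated with menin (4 nM final) in PBS with 0.02% bovine γ-globulin, 4% DMSO and 0.01% Triton X-100. Compounds were added and incubated 30 min at room temperature. IC50 came from nonlinear regression of competition curves, with Ki also derived.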
menin protein, sequence (O00255 whole entry): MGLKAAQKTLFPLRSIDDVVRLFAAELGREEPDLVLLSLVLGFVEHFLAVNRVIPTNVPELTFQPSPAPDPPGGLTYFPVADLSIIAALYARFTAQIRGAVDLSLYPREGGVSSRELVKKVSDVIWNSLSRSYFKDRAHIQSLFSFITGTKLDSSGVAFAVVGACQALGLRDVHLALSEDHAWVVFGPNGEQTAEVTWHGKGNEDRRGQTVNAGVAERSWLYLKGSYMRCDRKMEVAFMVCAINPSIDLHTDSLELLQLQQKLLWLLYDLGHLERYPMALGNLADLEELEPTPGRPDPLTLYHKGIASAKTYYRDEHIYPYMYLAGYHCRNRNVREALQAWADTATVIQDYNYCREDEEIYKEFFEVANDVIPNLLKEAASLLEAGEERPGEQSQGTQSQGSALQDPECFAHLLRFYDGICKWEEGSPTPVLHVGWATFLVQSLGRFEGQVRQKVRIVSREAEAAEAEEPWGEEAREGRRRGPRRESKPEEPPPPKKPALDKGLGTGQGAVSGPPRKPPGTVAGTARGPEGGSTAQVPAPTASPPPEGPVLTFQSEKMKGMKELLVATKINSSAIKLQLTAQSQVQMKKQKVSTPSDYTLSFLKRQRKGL

Consider `CCN1Cc2ccccc2C(C2CCCC2)(C2CCN(Cc3ccccc3Oc3ccc(C#N)cc3)CC2)C1` (centres unmarked) [compound 163, 4-(2-((4-(4-cyclopentyl-2-ethyl-1,2,3,4-tetrahydroisoquinolin-4-yl)piperidin-1-yl)methyl)phenoxy)benzonitrile], for which the “Menin Binding Affinity IC50 (μM)” value is “No inhibition”.
With `CC(=O)O[C@H]1CCC[C@@H]1C(C#N)(c1ccccc1F)C1CCN(CCCOc2ccc(C#N)cc2)CC1` (mixture of isomers) [compound 308, rac-(1S,2R)-2-(cyano(1-(3-(4-cyanophenoxy)propyl)piperidin-4-yl)(2-fluorophenyl)methyl)cyclopentyl acetate], the IC50 (as a rule, the concentration needed to halve the response being measured) was determined as 66 nM.
Still for that read-out and setting: with `N#Cc1ccc(OCCCN2CCC(C(C#N)(c3ccccc3)C3CCCC3)CC2)cc1` (centres unmarked) [compound 20, 4-(3-(4-(cyano(cyclopentyl)(phenyl)methyl)piperidin-1-yl)propoxy)benzonitrile] the figure was 1300 nM.
On to `CCN1Cc2ccccc2C(C2CCCC2)(C2CCN(Cc3ccccc3Oc3ccc(S(=O)(=O)c4ccncc4)cc3)CC2)C1` (centres unmarked) [compound 162, 4-cyclopentyl-2-ethyl-4-(1-(2-(4-(pyridin-4-ylsulfonyl)phenoxy)benzyl)piperidin-4-yl)-1,2,3,4-tetrahydroisoquinoline], for which the “Menin Binding Affinity IC50 (μM)” value is given as “No inhibition”.
Take `N#Cc1ccc(N2CC(CN3CCC(C4(C5CCCC5)NCCc5ccccc54)CC3)C2)cc1` (centres unmarked) [Cpd. No. 129, 4-(3-((4-(1-cyclopentyl-1,2,3,4-tetrahydroisoquinolin-1-yl)piperidin-1-yl)methyl)azetidin-1-yl)benzonitrile]: the IC50 is 36 nM.
The same measure, in the same setting: as for `N#Cc1ccc(OCCCN2CCC(C3(CC4CCCCC4)NCCc4ccccc43)CC2)cc1` (centres unmarked) [compound 251, 4-(3-(4-(1-(cyclohexylmethyl)-1,2,3,4-tetrahydroisoquinolin-1-yl)piperidin-1-yl)propoxy)benzonitrile], the figure is 7100 nM; as for `CNC(=O)N[C@@H]1CCC[C@H]1C(CNC(=O)c1cocn1)(c1ccccc1)C1CCN(CC2CN(c3ccc(C#N)cc3)C2)CC1` (mixture of isomers) [compound 379, rac-N-(2-(1-((1-(4-cyanophenyl)azetidin-3-yl)methyl)piperidin-4-yl)-2-((1S,2R)-2-(3-methylureido)cyclopentyl)-2-phenylethyl)oxazole-4-carboxamide], 3800 nM; as for `CNC(=O)O[C@@H]1CCC[C@H]1C(Cn1ccnc1)(c1ccccc1)C1CCN(CC2CN(c3ccc(C#N)cc3)C2)CC1` (mixture of isomers) [compound 365, rac-(1R,2S)-2-(1-(1-((1-(4-cyanophenyl)azetidin-3-yl)methyl)piperidin-4-yl)-2-(1H-imidazol-1-yl)-1-phenylethyl)cyclopentyl methylcarbamate], 281 nM.
With `N#Cc1ccc(OCCCNc2ncc(C(O)(c3ccccc3)C3CCCC3)cn2)cc1` (centres unmarked) [compound 124, 4-(3-((5-(cyclopentyl(hydroxy)(phenyl)methyl)pyrimidin-2-yl)amino)propoxy)benzonitrile], the “Menin Binding Affinity IC50 (μM)” value is “No inhibition”.
As for `N#CC(c1ccccc1)(C1CCCC1)C1CCN(CC2CN(c3ccc(S(=O)(=O)c4ccncc4)cc3)C2)CC1` (centres unmarked) [compound 190, 2-cyclopentyl-2-phenyl-2-(1-((1-(4-(pyridin-4-ylsulfonyl)phenyl)azetidin-3-yl)methyl)piperidin-4-yl)acetonitrile], the IC50 was 2000 nM.
On to `CNC(=O)O[C@@H]1CCC[C@H]1C(CN1CCCC1)(c1ccccc1)C1CCN(CC2CN(c3ccc(S(=O)(=O)c4ccccc4)cc3)C2)CC1` (mixture of isomers) [compound 360, rac-(1R,2S)-2-(1-phenyl-1-(1-((1-(4-(phenylsulfonyl)phenyl)azetidin-3-yl)methyl)piperidin-4-yl)-2-(pyrrolidin-1-yl)ethyl)cyclopentyl methylcarbamate], for which the IC50 came out at 1400 nM.
